Measured values: PMC5218480 (PLoS ONE, 2017)

Test system: MV-4-11 cells
Test: Gene expression microarray analysis (Affymetrix PrimeView) and GSEA
Format: cell-based, human
Set-up: RFU PODN (11730768_x_at) / Fold change /veh PODN (11730768_x_at) / RFU LINC00158 (11744669_a_at) / Fold change /veh LINC00158 (11744669_a_at) / RFU DUSP10 (11751237_a_at) / Fold change /veh DUSP10 (11751237_a_at) / RFU ID3 (11757404_x_at) / Fold change /veh ID3 (11757404_x_at) / RFU PLEKHG5 (11737974_s_at) / Fold change /veh PLEKHG5 (11737974_s_at) / RFU LRRC4B (11730491_at) / Fold change /veh LRRC4B (11730491_at) / RFU GIMAP4 (11747438_a_at) / Fold change /veh GIMAP4 (11747438_a_at) / RFU KRT8 (11758183_x_at) / Fold change /veh KRT8 (11758183_x_at) / RFU CNN1 (11734310_a_at) / Fold change /veh CNN1 (11734310_a_at) / RFU VPS37D (11726825_at) / Fold change /veh VPS37D (11726825_at) / RFU C10orf10 (11716522_x_at) / Fold change /veh C10orf10 (11716522_x_at) / RFU KIR2DL2 /// KIR2DL4 /// KIR2DL5A /// KIR2DL5B /// KIR2DS1 /// KIR2DS2 /// KIR2DS3 /// KIR2DS4 /// KIR3DL3 /// KIR3DL3 /// KIR3DS1 (11738374_at) / Fold change /veh KIR2DL2 /// KIR2DL4 /// KIR2DL5A /// KIR2DL5B /// KIR2DS1 /// KIR2DS2 /// KIR2DS3 /// KIR2DS4 /// KIR3DL3 /// KIR3DL3 /// KIR3DS1 (11738374_at) / RFU C1QL1 (11718748_at) / Fold change /veh C1QL1 (11718748_at) / RFU TMPRSS4 (11747572_a_at) / Fold change /veh TMPRSS4 (11747572_a_at) / RFU HAMP (11756126_x_at) / Fold change /veh HAMP (11756126_x_at) / RFU RNFT2 (11725882_a_at) / Fold change /veh RNFT2 (11725882_a_at) / RFU NR4A2 (11747474_a_at) / Fold change /veh NR4A2 (11747474_a_at) / RFU ABCC12 (11746883_a_at) / Fold change /veh ABCC12 (11746883_a_at) / RFU TMEM136 (11760407_x_at) / Fold change /veh TMEM136 (11760407_x_at) / RFU CLDN22 /// WWC2 (11732394_at) / Fold change /veh CLDN22 /// WWC2 (11732394_at) / RFU HLA-DPB1 (11760878_x_at) / Fold change /veh HLA-DPB1 (11760878_x_at) / RFU SPINT1 (11716480_a_at) / Fold change /veh SPINT1 (11716480_a_at) / RFU GAP43 (11754022_s_at) / Fold change /veh GAP43 (11754022_s_at) / RFU A4GNT (11735810_at) / Fold change /veh A4GNT (11735810_at) / RFU PRB3 (11715151_x_at) / Fold change /veh PRB3 (11715151_x_at) / RFU TUBB4B (11761932_at) / Fold change /veh TUBB4B (11761932_at) / RFU CAPN14 (11732068_a_at) / Fold change /veh CAPN14 (11732068_a_at) / RFU TMCC2 (11721928_a_at) / Fold change /veh TMCC2 (11721928_a_at) / RFU IRGQ (11745062_a_at) / Fold change /veh IRGQ (11745062_a_at) / RFU FAM174B (11720279_a_at) / Fold change /veh FAM174B (11720279_a_at) / RFU TMPRSS4 (11748680_a_at) / Fold change /veh TMPRSS4 (11748680_a_at) / RFU FAM212B (11763350_a_at) / Fold change /veh FAM212B (11763350_a_at) / RFU PLEKHG5 (11743358_a_at) / Fold change /veh PLEKHG5 (11743358_a_at) / RFU ZSCAN30 (11745921_a_at) / Fold change /veh ZSCAN30 (11745921_a_at) / RFU CMKLR1 (11741424_a_at) / Fold change /veh CMKLR1 (11741424_a_at) / RFU LOC101060620 /// MAPK8IP1 (11723275_at) / Fold change /veh LOC101060620 /// MAPK8IP1 (11723275_at) / RFU SPTSSB (11747773_x_at) / Fold change /veh SPTSSB (11747773_x_at) / RFU PRSS12 (11739890_at) / Fold change /veh PRSS12 (11739890_at) / RFU BIN1 (11741810_x_at) / Fold change /veh BIN1 (11741810_x_at) / RFU WNT11 (11732464_a_at) / Fold change /veh WNT11 (11732464_a_at) / RFU C10orf10 (11716521_a_at) / Fold change /veh C10orf10 (11716521_a_at) / RFU C5orf56 (11738089_at) / Fold change /veh C5orf56 (11738089_at) / RFU CYB561 (11721691_x_at) / Fold change /veh CYB561 (11721691_x_at) / RFU ANKRD19P (11752326_a_at) / Fold change /veh ANKRD19P (11752326_a_at) / RFU OR2T12 /// OR2T33 /// OR2T8 (11738714_s_at) / Fold change /veh OR2T12 /// OR2T33 /// OR2T8 (11738714_s_at) / RFU VCAN (11748164_a_at) / Fold change /veh VCAN (11748164_a_at) / RFU JSRP1 (11732532_at) / Fold change /veh JSRP1 (11732532_at) / RFU KRTAP10-11 (11738290_x_at) / Fold change /veh KRTAP10-11 (11738290_x_at) / RFU MYO3A (11730013_a_at) / Fold change /veh MYO3A (11730013_a_at) / RFU EBF3 (11725865_a_at) / Fold change /veh EBF3 (11725865_a_at) / RFU CAMK2N1 (11719241_x_at) / Fold change /veh CAMK2N1 (11719241_x_at) / RFU C5orf56 (11738088_a_at) / Fold change /veh C5orf56 (11738088_a_at) / RFU OLFML3 (11715873_a_at) / Fold change /veh OLFML3 (11715873_a_at) / RFU LOC100653217 /// NTM (11731650_a_at) / Fold change /veh LOC100653217 /// NTM (11731650_a_at) / RFU MAPK11 (11762145_a_at) / Fold change /veh MAPK11 (11762145_a_at) / RFU FIZ1 (11724087_x_at) / Fold change /veh FIZ1 (11724087_x_at) / RFU OASL (11726364_x_at) / Fold change /veh OASL (11726364_x_at) / RFU SOX15 (11748057_x_at) / Fold change /veh SOX15 (11748057_x_at) / RFU CD79A (11719716_a_at) / Fold change /veh CD79A (11719716_a_at) / RFU HIST1H1D (11736915_at) / Fold change /veh HIST1H1D (11736915_at) / RFU CASKIN2 (11723855_a_at) / Fold change /veh CASKIN2 (11723855_a_at) / RFU LOC730098 (11760151_x_at) / Fold change /veh LOC730098 (11760151_x_at) / RFU OR4N2 (11742367_at) / Fold change /veh OR4N2 (11742367_at) / RFU PRRT2 (11749266_a_at) / Fold change /veh PRRT2 (11749266_a_at) / RFU SNX32 (11753110_a_at) / Fold change /veh SNX32 (11753110_a_at) / RFU CDHR5 (11726645_a_at) / Fold change /veh CDHR5 (11726645_a_at) / RFU RCAN1 (11760418_a_at) / Fold change /veh RCAN1 (11760418_a_at) / RFU FAM167A (11723789_a_at) / Fold change /veh FAM167A (11723789_a_at) / RFU FAM26E (11764081_at) / Fold change /veh FAM26E (11764081_at) / RFU ISYNA1 (11749810_s_at) / Fold change /veh ISYNA1 (11749810_s_at) / RFU ACY1 (11761880_at) / Fold change /veh ACY1 (11761880_at) / RFU 11764098_at / Fold change /veh 11764098_at / RFU SAMD14 (11745864_x_at) / Fold change /veh SAMD14 (11745864_x_at) / RFU NPB (11741838_a_at) / Fold change /veh NPB (11741838_a_at) / RFU TMPRSS6 (11731388_a_at) / Fold change /veh TMPRSS6 (11731388_a_at) / RFU KRTAP10-2 (11738614_at) / Fold change /veh KRTAP10-2 (11738614_at) / RFU ARHGAP8 /// PRR5-ARHGAP8 (11727945_x_at) / Fold change /veh ARHGAP8 /// PRR5-ARHGAP8 (11727945_x_at) / RFU KRTAP5-7 /// NADSYN1 (11734609_at) / Fold change /veh KRTAP5-7 /// NADSYN1 (11734609_at) / RFU RASL12 (11751679_a_at) / Fold change /veh RASL12 (11751679_a_at) / RFU CDKN2B (11736163_a_at) / Fold change /veh CDKN2B (11736163_a_at) / RFU PRF1 (11729649_at) / Fold change /veh PRF1 (11729649_at) / RFU, ZNF638 /// ZNF638-IT1 / Fold change vs veh, ZNF638 /// ZNF638-IT1 / RFU, PANK3 / Fold change vs veh, PANK3 / RFU, SH3YL1 / Fold change vs veh, SH3YL1 / RFU, ZEB2 / Fold change vs veh, ZEB2 / RFU, NRIP1 / Fold change vs veh, NRIP1 / RFU, PTTG1IP / Fold change vs veh, PTTG1IP / RFU, CAPN2 / Fold change vs veh, CAPN2 / RFU, MED14 / Fold change vs veh, MED14 / RFU, SNORA58 / Fold change vs veh, SNORA58 / RFU, C1orf63 / Fold change vs veh, C1orf63 / RFU, LRRFIP1 / Fold change vs veh, LRRFIP1 / RFU, NDUFAF7 / Fold change vs veh, NDUFAF7 / RFU, SLC12A2 / Fold change vs veh, SLC12A2 / RFU, IBTK / Fold change vs veh, IBTK / RFU, ESF1 / Fold change vs veh, ESF1 / Fold change vs veh, TMEM50B / RFU, TAOK1 / Fold change vs veh, TAOK1 / RFU, ACBD3 / Fold change vs veh, ACBD3 / RFU, TMA16 / Fold change vs veh, TMA16 / RFU, RWDD3 / Fold change vs veh, RWDD3 / RFU, BCAT1 / Fold change vs veh, BCAT1 / RFU, EDEM3 / Fold change vs veh, EDEM3 / RFU, TMEM33 / Fold change vs veh, TMEM33 / RFU, WDR75 / Fold change vs veh, WDR75 / RFU, AHCTF1 / Fold change vs veh, AHCTF1 / RFU, TFRC / Fold change vs veh, TFRC / RFU, ZDHHC17 / Fold change vs veh, ZDHHC17 / RFU, NOM1 / Fold change vs veh, NOM1 / RFU, ARL8B / Fold change vs veh, ARL8B / RFU, ZBTB11 / Fold change vs veh, ZBTB11 / RFU, TAMM41 / Fold change vs veh, TAMM41 / RFU, KIAA1704 /// LOC100996395 / Fold change vs veh, KIAA1704 /// LOC100996395 / RFU, ING1 / Fold change vs veh, ING1 / RFU, TRMT61B / Fold change vs veh, TRMT61B / RFU, FUBP3 / Fold change vs veh, FUBP3 / RFU, TP53 / Fold change vs veh, TP53 / RFU, TNKS2 / Fold change vs veh, TNKS2 / RFU, ZFP14 / Fold change vs veh, ZFP14 / RFU, ACTR2 / Fold change vs veh, ACTR2 / RFU, PPP3R1 / Fold change vs veh, PPP3R1 / RFU, PIK3R1 / Fold change vs veh, PIK3R1 / RFU, HNRNPA1 / Fold change vs veh, HNRNPA1 / RFU, RNF170 / Fold change vs veh, RNF170 / RFU, ZNF28 / Fold change vs veh, ZNF28 / RFU, RNGTT / Fold change vs veh, RNGTT / RFU, OGT / Fold change vs veh, OGT / RFU, BRD1 / Fold change vs veh, BRD1 / RFU, MARS / Fold change vs veh, MARS / RFU, ZNF655 / Fold change vs veh, ZNF655 / RFU, FAHD1 / Fold change vs veh, FAHD1 / RFU, BDP1 / Fold change vs veh, BDP1 / RFU, LRRCC1 / Fold change vs veh, LRRCC1 / RFU, ARID1A / Fold change vs veh, ARID1A / RFU, ZNF146 / Fold change vs veh, ZNF146 / RFU, ZNF330 / Fold change vs veh, ZNF330 / RFU, GPN3 / Fold change vs veh, GPN3 / RFU, C9orf123 / Fold change vs veh, C9orf123 / RFU, N4BP2L2 / Fold change vs veh, N4BP2L2 / RFU, ARFIP1 / Fold change vs veh, ARFIP1 / RFU, FAM179B / Fold change vs veh, FAM179B / RFU, BCL10 / Fold change vs veh, BCL10 / RFU, UHRF1BP1L / Fold change vs veh, UHRF1BP1L / RFU, BET1 / Fold change vs veh, BET1 / RFU, CNOT2 / Fold change vs veh, CNOT2 / RFU, ZNF268 / Fold change vs veh, ZNF268 / Fold change vs veh, ZNF507 / RFU, DGCR2 / Fold change vs veh, DGCR2 / RFU, WDSUB1 / Fold change vs veh, WDSUB1 / Fold change vs veh, HSP90B1 /// MIR3652 / RFU, ADSS / Fold change vs veh, ADSS / RFU, GK / Fold change vs veh, GK / RFU, ZNF148 / Fold change vs veh, ZNF148 / RFU, TAF9 / Fold change vs veh, TAF9 / RFU, SLC1A5 / Fold change vs veh, SLC1A5 / RFU, SLMO2 / Fold change vs veh, SLMO2 / RFU, ABCC4 / Fold change vs veh, ABCC4 / RFU, LOC101060439 /// RAP1B / Fold change vs veh, LOC101060439 /// RAP1B / RFU, RFX7 / Fold change vs veh, RFX7 / RFU, GTPBP10 / Fold change vs veh, GTPBP10 / RFU, CNEP1R1 / Fold change vs veh, CNEP1R1 / RFU, BIVM-ERCC5 /// ERCC5 / Fold change vs veh, BIVM-ERCC5 /// ERCC5 / RFU, ILF3 / Fold change vs veh, ILF3 / RFU 11762660_at / Fold change /veh 11762660_at / RFU VCAN (11757783_s_at) / Fold change /veh VCAN (11757783_s_at) / RFU DDX43 (11728927_at) / Fold change /veh DDX43 (11728927_at) / RFU KRT8 (11758188_x_at) / Fold change /veh KRT8 (11758188_x_at) / RFU NKD1 (11759106_at) / Fold change /veh NKD1 (11759106_at) / RFU SRD5A1 (11742802_a_at) / Fold change /veh SRD5A1 (11742802_a_at) / RFU TPSAB1 /// TPSB2 (11721975_s_at) / Fold change /veh TPSAB1 /// TPSB2 (11721975_s_at) / RFU GSTM3 (11746129_a_at) / Fold change /veh GSTM3 (11746129_a_at) / RFU IL23R (11737362_x_at) / Fold change /veh IL23R (11737362_x_at) / RFU TMEM51 (11727254_a_at) / Fold change /veh TMEM51 (11727254_a_at) / RFU PIWIL2 (11732686_x_at) / Fold change /veh PIWIL2 (11732686_x_at) / RFU ORM1 (11744905_x_at) / Fold change /veh ORM1 (11744905_x_at) / RFU CCDC152 (11743942_at) / Fold change /veh CCDC152 (11743942_at) / RFU ECM1 (11717891_a_at) / Fold change /veh ECM1 (11717891_a_at) / RFU IL23R (11748794_a_at) / Fold change /veh IL23R (11748794_a_at) / RFU TNFAIP8L3 (11732012_x_at) / Fold change /veh TNFAIP8L3 (11732012_x_at) / RFU MBOAT4 (11741988_at) / Fold change /veh MBOAT4 (11741988_at) / RFU 11764193_at / Fold change /veh 11764193_at / RFU TMEM53 (11763286_at) / Fold change /veh TMEM53 (11763286_at) / RFU MAGEB2 (11727129_at) / Fold change /veh MAGEB2 (11727129_at) / RFU TMEM200A (11744735_a_at) / Fold change /veh TMEM200A (11744735_a_at) / RFU CCDC152 (11751479_a_at) / Fold change /veh CCDC152 (11751479_a_at) / RFU FAM211A (11726209_a_at) / Fold change /veh FAM211A (11726209_a_at) / RFU RGS16 (11746705_a_at) / Fold change /veh RGS16 (11746705_a_at) / RFU VCAN (11755009_s_at) / Fold change /veh VCAN (11755009_s_at) / RFU RHOB (11743442_s_at) / Fold change /veh RHOB (11743442_s_at) / RFU RGS16 (11720943_a_at) / Fold change /veh RGS16 (11720943_a_at) / RFU RGS16 (11720944_at) / Fold change /veh RGS16 (11720944_at) / RFU, VPS4B / Fold change vs veh, VPS4B / RFU, CREB1 / Fold change vs veh, CREB1 / RFU, DNAJC13 / Fold change vs veh, DNAJC13 / RFU, GNAQ / Fold change vs veh, GNAQ / RFU, CDK5R1 / Fold change vs veh, CDK5R1 / RFU, ZRANB3 / Fold change vs veh, ZRANB3 / RFU, CUL4A / Fold change vs veh, CUL4A / RFU, CCNY / Fold change vs veh, CCNY / RFU, UFL1 / Fold change vs veh, UFL1 / RFU, COG3 / Fold change vs veh, COG3 / RFU, DIAPH2 / Fold change vs veh, DIAPH2 / RFU, SKA2 / Fold change vs veh, SKA2 / RFU, AFF3 / Fold change vs veh, AFF3 / RFU, LMF1 / Fold change vs veh, LMF1 / RFU, IPO11 / Fold change vs veh, IPO11 / RFU, DFFB / Fold change vs veh, DFFB / RFU, FOXP1 / Fold change vs veh, FOXP1 / RFU, CARD8 / Fold change vs veh, CARD8 / RFU, STRN3 / Fold change vs veh, STRN3 / RFU, ADK / Fold change vs veh, ADK / RFU, RASSF2 / Fold change vs veh, RASSF2 / RFU, WIPF1 / Fold change vs veh, WIPF1 / RFU, LARP1B / Fold change vs veh, LARP1B / RFU, RASA1 / Fold change vs veh, RASA1 / RFU, RB1 / Fold change vs veh, RB1 / RFU, PPFIA1 / Fold change vs veh, PPFIA1 / RFU, MAT2A / Fold change vs veh, MAT2A / RFU, CCT5 / Fold change vs veh, CCT5 / RFU, WDR92 / Fold change vs veh, WDR92 / RFU, CUX1 / Fold change vs veh, CUX1 / RFU, TTC7A / Fold change vs veh, TTC7A / RFU, TMEM135 / Fold change vs veh, TMEM135 / RFU, DEPTOR / Fold change vs veh, DEPTOR / RFU, CPM / Fold change vs veh, CPM / RFU, DNAJB6 / Fold change vs veh, DNAJB6 / RFU, CACNA2D3 / Fold change vs veh, CACNA2D3 / RFU, DTX4 / Fold change vs veh, DTX4 / RFU, TFCP2 / Fold change vs veh, TFCP2 / RFU, GMCL1 /// GMCL1P1 / Fold change vs veh, GMCL1 /// GMCL1P1 / RFU, AEBP2 / Fold change vs veh, AEBP2 / RFU, SNHG1 /// SNORD22 /// SNORD25 /// SNORD26 /// SNORD27 /// SNORD28 /// SNORD29 /// SNORD31 / Fold change vs veh, SNHG1 /// SNORD22 /// SNORD25 /// SNORD26 /// SNORD27 /// SNORD28 /// SNORD29 /// SNORD31 / Fold change (Aza/veh), C12orf56 (ProbeSet 11735607_a_at) / Fold change (ACY-1035/veh), C12orf56 (ProbeSet 11735607_a_at) / Fold change (Aza/veh), FGFR1OP (ProbeSet 11751329_s_at) / Fold change (ACY-1035/veh), FGFR1OP (ProbeSet 11751329_s_at) / Fold change (Aza/veh), VPS36 (ProbeSet 11739960_a_at) / Fold change (ACY-1035/veh), VPS36 (ProbeSet 11739960_a_at) / RFU SYPL1 (11715823_x_at) / Fold change /veh SYPL1 (11715823_x_at) / RFU IGFBP7 (11715501_s_at) / Fold change /veh IGFBP7 (11715501_s_at) / RFU REEP3 (11722064_at) / Fold change /veh REEP3 (11722064_at) / RFU IGLL1 (11728026_x_at) / Fold change /veh IGLL1 (11728026_x_at): dose or concentration left out as unconfirmed
Conditions: MV-4-11 cells, 48 hours

## Nc1ncn([C@@H]2O[C@H](CO)[C@@H](O)[C@H]2O)c(=O)n1 [azacitidine]
  RFU RGS16 (11746705_a_at): 77.87 RFU
